Data taken from patent US9580487B2, “Method of treating stomach or bowel-related disorders by administering glucagon-like-peptide-2 (GLP-2) analogues” (Zealand Pharma A/S, priority 2005, dated 2017).
Entries after “also recorded” stand apart in the source; their conditions may differ. No end group written: not given here.

Test system: male C57BL mice
Experiment: Screening for intestinal growth effects (small intestine and colon mass relative to body weight, small intestine-colon sensitivity index)
Type: in vivo
Conditions: for Preferential growth of small intestine versus colon (small intestine-colon sensitivity): relative to [Gly2]GLP-2; for colon mass relative to body weight, % [Gly2]GLP-2 / small intestine-colon sensitivity index, (SI/Colon)X/(SI/Colon)[Gly2]GLP-2 %: male C57BL mice, 30 nmol/kg s.c. twice daily for ten days; for small intestine-colon sensitivity index, (SI/Colon)X/(SI/Colon)[Gly2]GLP-2 %: third value column
Procedure: The ability of the present compounds to stimulate intestinal growth was determined in male C57BL mice. Individual groups (n=6) of mice were given 30 nmol/kg of each compound, s.c, twice daily for ten consecutive days. For comparison purposes other groups of animals were given either an equimolar dose of [Gly2]GLP-2 (SEQ ID NO:54) or vehicle (phosphate buffered saline, pH 7.4) in the same dosing regimen. Twenty-four hours after the last dose of compound had been given the mice were sacrificed and the small intestine (from the pylorus to the cecum) and the colon (intestine distal to cecum) was emptied and weighed. To correct for slight difference in body weight (BW), the organ mass of the small intestine (SI) and colon were expressed relative to BW. The non-selective reference compound [Gly2]GLP-2 (SEQ ID NO:54) has been reported to stimulate gastrointestinal growth in both esophagus, stomach, small intestine and colon and to evaluate differences in growth pattern induced by compounds, the small intestine-colon sensitivity index of compound X was calculated as:
(SI/Colon)X/(SI/Colon)[Gly2]GLP-2%
Compounds with a small intestine-colon sensitivity greater than or equal to 1.05 were considered relatively selective for the small intestine (Table 15).
Compounds with a small intestine-colon sensitivity smaller than or equal to 0.95 were considered relatively selective for the colon (Table 15).

[1] = 30 nmol/kg s.c. twice daily, ten days

Substance	Preferential growth of small intestine versus colon (small intestine-colon sensitivity) [1]	colon mass relative to body weight, % [Gly2]GLP-2	small intestine-colon sensitivity index, (SI/Colon)X/(SI/Colon)[Gly2]GLP-2 %	Small intestine mass relative to [Gly2]GLP-2 (30 nmol/kg s.c. twice daily, ten days, equimolar [Gly2]GLP-2)
[Gly2, Glu3, Leu10, Lys11, Ala16,24,28]hGLP-2(1-33)-(Lys)6-NH2 (HGEGSFSDELKTILDALAARDFIAWLIATKITDKKKKKK-NH2) [Compound 1850]	preferentially stimulating epithelial growth in the small intestine	89 % [Gly2]GLP-2	116 % [Gly2]GLP-2	–
[Gly2, Glu3, Leu10, Lys11, Ala16,24,28]hGLP-2(1-33)-NH2 (HGEGSFSDELKTILDALAARDFIAWLIATKITD-NH2) [Compound 1859]	preferentially stimulating epithelial growth in the small intestine	73 % [Gly2]GLP-2	114 % [Gly2]GLP-2	–
[Gly2, Glu3, Thr5, Leu10, Ala11,16,24,28]hGLP-2-(Lys)6-NH2 (HGEGTFSDELATILDALAARDFIAWLIATKITDKKKKKK-NH2) [Compound 1809]	preferentially stimulating epithelial growth in the small intestine	–	–	significant increase in the weight of the small intestine
[Gly2, Glu3, Thr5, Leu10, Lys11, Ala16,24,28]hGLP-2(1-33)-(Lys)6-NH2 (HGEGTFSDELKTILDALAARDFIAWLIATKITDKKKKKK-NH2) [Compound 1851]	preferentially stimulating epithelial growth in the small intestine	96 % [Gly2]GLP-2	114 % [Gly2]GLP-2	–
[Gly2, Glu3, Thr5, Leu10, Ser11, Ala16,24,28]hGLP-2(1-33)-(Lys)6-NH2 (HGEGTFSDELSTILDALAARDFIAWLIATKITDKKKKKK-NH2) [Compound 1845]	preferentially stimulating epithelial growth in the small intestine	98 % [Gly2]GLP-2	107 % [Gly2]GLP-2	–
[Gly2, Glu3, Thr5, Leu10, Ser11, Ala16,24,28]hGLP-2(1-33)-NH2 (HGEGTFSDELSTILDALAARDFIAWLIATKITD-NH2) [Compound 1854]	without preferential growth in small intestine or colon	–	–	–
[Gly2, Glu3, Thr5, Ser8,11, Leu10, Ala16,24,28]hGLP-2(1-33)-(Lys)6-NH2 (HGEGTFSSELSTILDALAARDFIAWLIATKITDKKKKKK-NH2) [Compound 1844]	supplementary increase in the weight of the small intestine without significant effecting the weight of the colon; also recorded: preferentially stimulating epithelial growth in the small intestine	89 % [Gly2]GLP-2	119 % [Gly2]GLP-2	–
[Gly2, Glu3, Thr5, Ser8,11, Leu10, Ala16,24,28]hGLP-2(1-33)-NH2 (HGEGTFSSELSTILDALAARDFIAWLIATKITD-NH2) [Compound 1853]	supplementary increase in the weight of the small intestine without significant effecting the weight of the colon; also recorded: preferentially stimulating epithelial growth in the small intestine	96 % [Gly2]GLP-2	105 % [Gly2]GLP-2	–
[Gly2, Glu3, Thr5, Ser8, Leu10, Lys11, Ala16,24,28]hGLP-2(1-33)-NH2 [Compound 1852]	supplementary increase in the weight of the small intestine without significant effecting the weight of the colon; also recorded: preferentially stimulating epithelial growth in the small intestine	97 % [Gly2]GLP-2	109 % [Gly2]GLP-2	–
[Gly2, Leu10, Ala24]hGLP-2-K6-NH2 (HGDGSFSDELNTILDNLAARDFIAWLIQTKITDKKKKKK-NH2) [Compound 1826]	preferentially stimulating epithelial growth in the small intestine	–	–	–
[Gly2, Leu10, Lys11, Ala24]hGLP-2(1-30)-K6-NH2 [Compound 1821]	without preferential growth in small intestine or colon	–	–	–
[Gly2, Leu10, Lys11, Ala24]hGLP-2(1-30)-NH2 (HGDGSFSDELKTILDNLAARDFIAWLIQTK-NH2) [Compound 1835]	preferentially stimulating epithelial growth in the colon	105 % [Gly2]GLP-2	91 % [Gly2]GLP-2	–
[Gly2, Leu10, Ser8,11, Ala24]hGLP-2(1-30)-K6-NH2 [Compound 1829]	without preferential growth in small intestine or colon	–	–	–
[Gly2, Leu10, Ser8,11, Ala24]hGLP-2(1-30)-NH2 (HGDGSFSSELSTILDNLAARDFIAWLIQTK-NH2) [Compound 1833]	without preferential growth in small intestine or colon	–	–	–
[Gly2, Leu10, Ser11, Ala24]hGLP-2(1-30)-K6-NH2 [Compound 1819]	preferentially stimulating epithelial growth in the small intestine	–	–	–
[Gly2, Leu10, Ser11, Ala24]hGLP-2(1-30)-NH2 (HGDGSFSDELSTILDNLAARDFIAWLIQTK-NH2) [Compound 1830]	preferentially stimulating epithelial growth in the colon	106 % [Gly2]GLP-2	94 % [Gly2]GLP-2	–
[Gly2, Ser8, Leu10, Ala11,24]hGLP-2(1-30)-K6-NH2 [Compound 1818]	supplementary increase in the weight of the small intestine without significant effecting the weight of the colon; also recorded: preferentially stimulating epithelial growth in the small intestine	–	–	–
[Gly2, Ser8, Leu10, Ala11,24]hGLP-2(1-30)-NH2 (HGDGSFSSELATILDNLAARDFIAWLIQTK-NH2) [Compound 1825]	without preferential growth in small intestine or colon	–	–	–
[Gly2, Thr7, Leu10, Lys11, Ala24]hGLP-2(1-30)-K6-NH2 [Compound 1822]	without preferential growth in small intestine or colon	–	–	–
[Gly2, Thr7, Leu10, Lys11, Ala24]hGLP-2(1-30)-NH2 (HGDGSFTDELKTILDNLAARDFIAWLIQTK-NH2) [Compound 1836]	preferentially stimulating epithelial growth in the colon	105 % [Gly2]GLP-2	90 % [Gly2]GLP-2	–
[Gly2, Thr7, Leu10, Ser8,11, Ala24]hGLP-2(1-30)-K6-NH2 [Compound 1828]	without preferential growth in small intestine or colon	–	–	–
[Gly2, Thr7, Leu10, Ser8,11, Ala24]hGLP-2(1-30)-NH2 (HGDGSFTSELSTILDNLAARDFIAWLIQTK-NH2) [Compound 1832]	without preferential growth in small intestine or colon	–	–	–
[Gly2, Thr7, Leu10, Ser11, Ala24]hGLP-2(1-30)-K6-NH2 [Compound 1827]	preferentially stimulating epithelial growth in the small intestine	–	–	–
[Gly2, Thr7, Leu10, Ser11, Ala24]hGLP-2(1-30)-NH2 (HGDGSFTDELSTILDNLAARDFIAWLIQTK-NH2) [Compound 1831]	preferentially stimulating epithelial growth in the colon	102 % [Gly2]GLP-2	88 % [Gly2]GLP-2	–
[Gly2, Thr7, Ser8, Leu10, Lys11, Ala24]hGLP-2(1-30)-K6-NH2 [Compound 1823]	without preferential growth in small intestine or colon	–	–	–
[Leu10, Ala11, Ala24]hGLP-2 (1-30)-NH2 [Compound 1841]	preferentially stimulating epithelial growth in the colon	126 % [Gly2]GLP-2	90 % [Gly2]GLP-2	–
[Leu10, Ala11, Ala24]hGLP-2 (1-33)-K6-NH2 [Compound 1839]	preferentially stimulating epithelial growth in the colon	133 % [Gly2]GLP-2	84 % [Gly2]GLP-2	–
[Leu10, Ala11, Ala24]hGLP-2 (1-33)-NH2 [Compound 1840]	preferentially stimulating epithelial growth in the colon	131 % [Gly2]GLP-2	86 % [Gly2]GLP-2	–
